Results published in patent US12390426B1, “Use of adamantane compositions and methods of reducing fibrotic tissue” (Ventoux Biosciences, Inc., priority 2024, dated 2025).
Counter-ions that a name gives are not always drawn.

Experiments:
long term potentiation = settings: animal models; cited from earlier work
[1] = test system: Bleomycin-Induced Dermal Fibrosis; assay: Bleomycin-induced dermal fibrosis animal model; type: in vivo, C57Bl/6 Mice; settings: 15 mg/kg intraperitoneal once daily days 0-27; bleomycin 20 μg s.c. daily; stated in words only, figure values not given
From the text: Animal Model Designed to Determine Efficacy of Memantine for the Treatment of Bleomycin-Induced Dermal Fibrosis
Forty-two normal male C57Bl/6 Mice were obtained from Charles River Laboratories. Mice age at the start of the study were from 6-8 weeks old. Study subjects were allocated as follows: 1 group of 6 mice and 3 groups of 12 mice each. Animals were not replaced during the study.
(§1) Bleomycin from Henry Schein (Cat #: 8700001) was obtained as a lyophilized powder. Unformulated Bleomycin was stored at 4° C. Formulated Bleomycin was prepared by mixing the lyophilized Bleomycin powder with saline to obtain a 0.4 mg/ml solution. Unused unformulated Bleomycin was retained. The prepared Bleomycin solution was aliquoted into 50 μL, 0.4 mg/ml Bleomycin parts and stored at −80° C. Bleomycin was prepared once and daily aliquots were frozen. Frozen aliquots were thawed daily for administration. […] Bleomycin was administered once daily on days 0-27 at 20 μg per subcutaneous injection. Unused formulated Bleomycin was disposed.
Memantine HCl from Selleckchem (Cat #: S2043) was obtained. Unformulated Memantine HCl was stored at −20° C. […]
Animals were dosed with test articles, administered at least 60 minutes prior to Bleomycin or saline injections. All animals were weighed and evaluated daily. […]

Alzheimer's disease = settings: cited from earlier work
[2] = Stability of the formulated dosing solutions; type: physicochemical; settings: 0.4 mg/ml in saline; room temperature
Protocol: as §1
Memantine HCl from Selleckchem (Cat #: S2043) was obtained. Unformulated Memantine HCl was stored at −20° C. Memantine was formulated daily by the following procedure: dissolve memantine in a 50/50 mixture of Kolliphor® EL (Sigma, Cat #: C5135)/ethanol for a 4× concentration of 12 mg/ml. Once dissolved, 3 parts MilliQ water is added for a final concentration of 3 mg/ml for dosing (12.5% Kolliphor® EL, 12.5% ethanol, 75% water). Unused unformulated Memantine was disposed. Memantine was formulated daily and administered by intraperitoneal injection once daily on days 0-27 at 15 mg/kg; 0.1 mL/20 g (5 mL/kg). […] Unused formulated Memantine was disposed.

Row | Molecule | duration of long term potentiation in vivo (long term potentiation) | learning and memory (long term potentiation) | efficacy at treating fibromatosis conditions [1] | cognitive, functional and global endpoints (Alzheimer's disease; three randomized placebo-controlled trials, Alzheimer's disease) | tolerability (Alzheimer's disease; used in Germany for neurological syndromes and cognitive deficits since 1982) | stability of formulated Bleomycin [2]
1 | CC12CC3CC(C)(C1)CC(N)(C3)C2 [Memantine, Memantine HCl] | prolong the duration of long term potentiation in vivo | improve learning and memory | Effective at Treating Fibromatosis Conditions | significant improvements | good tolerability | 
2 | Bleomycin |  |  |  |  |  | stable for a few hours at room temperature
